Data as given in US20250136612A1, “4',5'-DIHYDROSPIRO[PIPERIDINE-4,7'-THIENO[2,3-C]PYRAN] DERIVATIVES AS INHIBITORS OF APOL1 AND METHODS OF USING SAME” (VERTEX PHARMACEUTICALS INCORPORATED, priority 2022, published 2025).

These compounds were tested against T1, APOL1 (Homo sapiens, UniProt O14791) (assay: MultiTox-Fluor Multiplex Cytotoxicity Assay in tet-inducible APOL1 T-REx-HEK293 cells). Settings: 50 ng/mL tet, 24 hours, ratio of dead to live cells, read-out: IP50 (i.e., IC50 for cell proliferation).
T1 sequence (O14791 1-398 S342G/I384M): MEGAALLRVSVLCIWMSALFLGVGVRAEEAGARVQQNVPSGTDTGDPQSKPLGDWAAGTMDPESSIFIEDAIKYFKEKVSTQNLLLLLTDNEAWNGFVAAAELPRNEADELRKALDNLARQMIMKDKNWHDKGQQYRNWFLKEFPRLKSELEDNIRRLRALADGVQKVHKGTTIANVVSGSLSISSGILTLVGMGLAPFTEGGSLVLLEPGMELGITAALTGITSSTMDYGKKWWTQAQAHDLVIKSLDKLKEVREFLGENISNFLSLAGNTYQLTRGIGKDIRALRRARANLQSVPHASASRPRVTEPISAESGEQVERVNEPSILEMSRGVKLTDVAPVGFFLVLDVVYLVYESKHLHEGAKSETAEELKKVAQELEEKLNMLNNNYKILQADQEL
Assay type: cell-based
Protocol: The MultiTox-Fluor Multiplex Cytotoxicity Assay is a single-reagent-addition, homogeneous, fluorescence assay that measures the number of live and dead cells simultaneously in culture wells. The assay measures cell viability and cytotoxicity by detecting two distinct protease activities. The live-cell protease activity is restricted to intact viable cells and is measured using a fluorogenic, cell-permeant peptide glycyl-phenylalanylamino fluorocoumarin (GF-AFC) substrate. The substrate enters intact cells, where it is cleaved to generate a fluorescent signal proportional to the number of living cells. […] A second, cell-impermeant, fluorogenic peptide substrate (bis-AAF-R110 Substrate) is used to measure dead-cell protease that has been released from cells that have lost membrane integrity. A ratio of dead to live cells is used to normalize data.
Briefly, the tet-inducible transgenic APOL1 T-REx-HEK293 cell lines were incubated with 50 ng/mL tet to induce APOL1 in the presence of 3-(2-(4-fluorophenyl)-1H-indol-3-yl)-N-((3S,4R)-4-hydroxy-2-oxopyrrolidin-3-yl)propenamide at 10.03, 3.24, 1.13, 0.356, 0.129, 0.042, 0.129, 0.0045, 0.0015, 0.0005 μM in duplicate for 24 hours in a humidified 37° C. incubator. The MultiTox reagent was added to each well and placed back in the incubator for an additional 30 minutes. The plate was read on the EnVision plate reader. A ratio of dead to live cells was used to normalize, and data was imported, analyzed, and fit using Genedata Screener (Basel, Switzerland) software. Data was normalized using percent of control, no tet (100% viability), and 50 ng/mL tet treated (0% viability),and fit using Smart Fit. The reagents, methods, and complete protocol for the MultiTox assay are described below.
Human embryonic kidney (HEK293) cell lines containing a tet-inducible expression system (T-REx™; Invitrogen, Carlsbad, CA) and Adeno-associated virus site 1 pAAVS1-Puro-APOL1 G0 or pAAVS1-Puro-APOL1 G1 or pAAVS1-Puro-APOL1 G2 Clones G0 DC2.13, G1 DC3.25, and G2 DC4.44 were grown in a T-225 flask at ˜90% confluency in cell growth media (DMEM, 10% Tet-free FBS, 2 mM L-glutamine, 100 Units/mL penicillin-streptomycin, 5 μg/mL blasticidin S HCl, 1 μg/mL puromycin dihydrochloride). Cells were washed with DPBS and then trypsinized to dissociate from the flask. Media was used to quench the trypsin, cells were then pelleted at 200 g and resuspended in fresh cell assay media (DMEM, 2% Tet-free FBS, 2 mM L-glutamine, 100 Units/mL penicillin-streptomycin). Cells were counted and diluted to 1.17×10^6 cells/mL. 20 μL of cells (23,400/well) were dispensed in every well of a 384-well Poly-D-Lysine coated plate using the Multidrop dispenser. The plates were then incubated at room temperature for one hour.
Tetracycline is needed to induce APOL1 expression. 1 mg/mL tet stock in water was diluted to 250 ng/mL (5×) in cell assay media. 60 μL of cell assay media (no tet control) was dispensed in columns 1 and 24, and 60 μL of 5×tet in 384-PP-round bottom plate was dispensed in columns 2 to 23 with the Multidrop dispenser.
Assay ready plates from the Global Compound Archive were ordered using template 384_APOL1Cell_DR10n2_50 uM_v3. Compounds were dispensed at 200 nL in DMSO. The final top concentration was 10 μM with a 10 point 3-fold dilution in duplicate in the MultiTox assay.
20 μL was transferred from the 5×tet plate to the ARP and mixed, then 5 μL of 5×tet and the compounds were transferred to the cell plate and mixed using the Bravo. The cell plate was placed in the humidified 37° C. 5% CO2 incubator for 24 hours.
The MultiTox-Fluor Multiplex Cytotoxicity Assay was performed in accordance with the manufacturer's protocol. After cells were incubated with tet and compound for 24 hours, 25 μL of 1×MultiTox reagent was added to each well using the Multidrop dispenser; the plates were placed on a plate shaker (600 rpm) for 2 minutes, then centrifuged briefly and placed back in the 37° C. incubator for 30 minutes. […]
With `CCc1cc2c(s1)CCOC21CCNC(C2CC2)C1` (single isomer, unassigned) [Compound 29, 2′-cyclopropyl-2-ethyl-spiro[6,7-dihydrothieno[3,2-c]pyran-4,4′-piperidine]] the IC50 was 500 to 1000 nM. `Cn1cnc(C2CC3(CCN2)OCCc2cc(Cl)sc23)c1` (centres unmarked) [Compound 12] was tested, and the IC50 was 500 to 1000 nM. Work on `Clc1cc2c(s1)[C@@]1(CCN[C@H](c3cn(-c4ccncc4)nn3)C1)OCC2` [Compound 64] yielded an IC50 of 100 to 500 nM. `Fc1cccc(-n2cc([C@@H]3C[C@]4(CCN3)OCCc3cc(Cl)sc34)nn2)c1` [Compound 70] was tested, and the IC50 was 100 to 500 nM. Work on `Cn1cc([C@@H]2CC3(CCN2)OCCc2cc(CC(F)(F)F)sc23)nn1` (some centres unmarked) [Compound 48] yielded an IC50 of 100 to 500 nM. Compound `NC(=O)c1ccc(-n2cc([C@@H]3C[C@]4(CCN3)OCCc3cc(Cl)sc34)nn2)cc1` [Compound 59] has an IC50 of 100 to 500 nM. For `COCCn1cc([C@@H]2C[C@]3(CCN2)OCCc2cc(Cl)sc23)nn1` [Compound 76], the IC50 was 500 to 1000 nM. For `COC1CO[C@]2(CCN[C@H](c3cn(C)nn3)C2)c2sc(Cl)cc21` (single isomer, unassigned) [Compound 42], the IC50 was 500 to 1000 nM. With `CCc1cc2c(s1)CCOC21CCNC(C2(C)COC2)C1` (centres unmarked) [Compound 16] the IC50 was 500 to 1000 nM. With `CCc1cc2c(s1)CCOC21CCNC(c2cnn(CCS(C)(=O)=O)c2)C1` (centres unmarked) [Compound 7] the IC50 was 100 to 500 nM. In the case of `Cc1ncc(C2CC3(CCN2)OCCc2cc(Cl)sc23)cn1` (centres unmarked) [Compound 1, 2-chloro-2′-(2-methylpyrimidin-5-yl)spiro[4,5-dihydrothieno[2,3-c]pyran-7,4′-piperidine]], the IC50 is reported as 100 to 500 nM. Work on `Fc1ccccc1-n1cc([C@@H]2C[C@]3(CCN2)OCCc2cc(Cl)sc23)nn1` [Compound 74] yielded an IC50 of 500 to 1000 nM. `CC(O)c1c(C(F)(F)F)sc2c1CCOC21CCN[C@H](c2cn(C)nn2)C1` (single isomer, unassigned) [Compound 52] showed an IC50 of 100 to 500 nM. `CS(=O)(=O)CCn1cc([C@@H]2C[C@]3(CCN2)OCCc2cc(Cl)sc23)nn1` [Compound 73] was tested, and the IC50 was 500 to 1000 nM. `CCc1cc2c(s1)C(C)COC21CCNC(c2cn(C)nn2)C1` (centres unmarked) [Compound 9] was tested, and the IC50 was 100 to 500 nM. `COc1cccc(-n2cc([C@@H]3C[C@]4(CCN3)OCCc3cc(Cl)sc34)nn2)c1` [Compound 71] was tested, and the IC50 was 100 to 500 nM. In the case of `Cn1cc(C2CC3(CCN2)OCC(O)c2cc(Br)sc23)nn1` (single isomer, unassigned) [Compound 44, 2-bromo-2′-(1-methyltriazol-4-yl)spiro[4,5-dihydrothieno[2,3-c]pyran-7,4′-piperidine]-4-ol], the IC50 is reported as 500 to 1000 nM. `Cc1cc2c(s1)C1(CCN[C@H](c3cn(C)nn3)C1)OCC2` (single isomer, unassigned) [Compound 32] gave an IC50 of 100 to 500 nM. `CCc1cc2c(s1)CCOC21CCNC(c2cnc(C)nc2)C1` (centres unmarked) [Compound 18] was tested, and the IC50 was 500 to 1000 nM. `CN1Cc2cc(-n3cc([C@@H]4C[C@]5(CCN4)OCCc4cc(Cl)sc45)nn3)ccc2C1=O` [Compound 60] gave an IC50 of 100 to 500 nM. `Cn1cc([C@@H]2C[C@]3(CCN2)OCCc2cc(I)sc23)nn1` [Compound 33, (2S,4S)-2′-iodo-2-(1-methyl-1H-1,2,3-triazol-4-yl)-4′,5′-dihydrospiro[piperidine-4,7′-thieno[2,3-c]pyran]] gave an IC50 of less than 100 nM. With `Oc1ccccc1-n1cc([C@@H]2C[C@]3(CCN2)OCCc2cc(Cl)sc23)nn1` [Compound 75] the IC50 was 500 to 1000 nM. Compound `Cn1cc([C@@H]2C[C@]3(CCN2)OCC(O)c2cc(Cl)sc23)nn1` (stereo partly drawn) [Compound 35, (2S,4S)-2′-chloro-2-(1-methyl-1H-1,2,3-triazol-4-yl)-4′,5′-dihydrospiro[piperidine-4,7′-thieno[2,3-c]pyran]-4′-ol] has an IC50 of 100 to 500 nM. For `Cn1cc([C@@H]2C[C@]3(CCN2)OCC(O)c2cc(Cl)sc23)nn1` (stereo partly drawn) [Compound 36, (2S,4S)-2′-chloro-2-(1-methyl-1H-1,2,3-triazol-4-yl)-4′,5′-dihydrospiro[piperidine-4,7′-thieno[2,3-c]pyran]-4′-ol], the IC50 was 100 to 500 nM. `Cn1cc(C2CC3(CCN2)OCC(O)c2cc(Br)sc23)nn1` (single isomer, unassigned) [Compound 45, 2-bromo-2′-(1-methyltriazol-4-yl)spiro[4,5-dihydrothieno[2,3-c]pyran-7,4′-piperidine]-4-ol] gave an IC50 of less than 100 nM. For `COc1ccccc1-n1cc([C@@H]2C[C@]3(CCN2)OCCc2cc(Cl)sc23)nn1` [Compound 66], the IC50 was 100 to 500 nM. `OCCn1cc(C2CC3(CCN2)OCCc2cc(Cl)sc23)cn1` (centres unmarked) [Compound 14] gave an IC50 of 500 to 1000 nM. Compound `O=C1NCc2ccc(-n3cc([C@@H]4C[C@]5(CCN4)OCCc4cc(Cl)sc45)nn3)cc21` [Compound 56] has an IC50 of less than 100 nM. `Cn1cc([C@@H]2C[C@]3(CCN2)OCC(=O)c2cc(Cl)sc23)nn1` [Compound 41, (2S,4S)-2′-chloro-2-(1-methyltriazol-4-yl)spiro[piperidine-4,7′-thieno[2,3-c]pyran]-4′-one] was tested, and the IC50 was 100 to 500 nM. With `Cn1cc([C@@H]2C[C@]3(CCN2)OCCc2cc(C4CC4)sc23)nn1` (single isomer, unassigned) [Compound 31] the IC50 was 100 to 500 nM. With `Clc1cc2c(s1)[C@@]1(CCN[C@H](c3cn(-c4ccccn4)nn3)C1)OCC2` [Compound 69] the IC50 was 100 to 500 nM. With `CC1CO[C@]2(CCN[C@H](c3cn(C)nn3)C2)c2cc(Cl)sc21` (some centres unmarked) [Compound 28] the IC50 was 100 to 500 nM. `Cn1cc([C@@H]2C[C@]3(CCN2)OCCc2cc(Cl)sc23)nn1` (single isomer, unassigned) [Compound 2] was tested, and the IC50 was 100 to 500 nM. `Cc1cc2c(s1)CCOC21CCNC(C2CC2)C1` (centres unmarked) [Compound 20] gave an IC50 of 500 to 1000 nM. With `Cn1cc([C@@H]2C[C@]3(CCN2)OCC(C)(O)c2cc(Cl)sc23)nn1` (single isomer, unassigned) [Compound 37] the IC50 was 500 to 1000 nM. In the case of `NC(=O)c1cccc(-n2cc([C@@H]3C[C@]4(CCN3)OCCc3cc(Cl)sc34)nn2)c1` [Compound 54, 3-(4-((2S,4S)-2′-chloro-4′,5′-dihydrospiro[piperidine-4,7′-thieno[2,3-c]pyran]-2-yl)-1H-1,2,3-triazol-1-yl)benzamide], the IC50 is reported as less than 100 nM. `Clc1cc2c(s1)C1(CCNC(C3CC3)C1)OCC2` (centres unmarked) [Compound 19] was tested, and the IC50 was 500 to 1000 nM. Work on `Clc1cc2c(s1)[C@@]1(CCN[C@H](c3cn(-c4ccccc4)nn3)C1)OCC2` [Compound 55, (2S,4S)-2′-chloro-2-(1-phenyl-1H-1,2,3-triazol-4-yl)-4′,5′-dihydrospiro[piperidine-4,7′-thieno[2,3-c]pyran]] yielded an IC50 of 100 to 500 nM. In the case of `Cc1cc([C@@H]2C[C@]3(CCN2)OCC(O)c2cc(Cl)sc23)on1` (stereo partly drawn) [Compound 34, (2S,4S)-2′-chloro-2-(3-methylisoxazol-5-yl)-4′,5′-dihydrospiro[piperidine-4,7′-thieno[2,3-c]pyran]-4′-ol], the IC50 is reported as 100 to 500 nM. `Cn1cc([C@@H]2C[C@]3(CCN2)OCCc2cc(Br)sc23)nn1` [Compound 22] showed an IC50 of less than 100 nM. For `Cn1cc([C@@H]2C[C@]3(CCN2)OCC(C)(O)c2cc(Cl)sc23)nn1` (single isomer, unassigned) [Compound 38], the IC50 was 100 to 500 nM.
